According to PubChem BioAssay AID1963442 (Molecular Pharmacology Branch, DTP, NCI, 2024):

Tested on: MPNST complex spheroid with HUVEC/MSC, growth, % test/control
Assay: Anticancer human tumor MPNST cell line growth inhibition [Asc];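 further: compounds left on spheroids for seven days before reading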
Conditions: for IC50: curve of first compound; for viability, T/C: stronger effect = lower value; active means viability on the fitted dose curve at most 10% of control; inactive means the rest
In short: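 Complex solid-tumor spheroids incorporating human endothelial and mesenchymal stem cells received single agents or combinations over half-log dilution ranges anchored to clinical Cmax.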

[1] = second compound 0.00316 µM, first compound 0.0316 µM
[2] = second compound 0.00316 µM, first compound 0.1 µM
[3] = second compound 0.00316 µM, first compound 0.316 µM
[4] = second compound 0.00316 µM, first compound 1 µM
[5] = second compound 0.01 µM, first compound 0.0316 µM
[6] = second compound 0.01 µM, first compound 0.1 µM
[7] = second compound 0.01 µM, first compound 0.316 µM
[8] = second compound 0.01 µM, first compound 1 µM
[9] = second compound 0.0316 µM, first compound 0.0316 µM
[10] = second compound 0.0316 µM, first compound 0.1 µM
[11] = second compound 0.0316 µM, first compound 0.316 µM
[12] = second compound 0.0316 µM, first compound 1 µM
[13] = second compound 0.1 µM, first compound 0.0316 µM
[14] = second compound 0.1 µM, first compound 0.1 µM
[15] = second compound 0.1 µM, first compound 0.316 µM
[16] = second compound 0.1 µM, first compound 1 µM
[17] = second compound 0.316 µM, first compound 0.0316 µM
[18] = second compound 0.316 µM, first compound 0.1 µM
[19] = second compound 0.316 µM, first compound 0.316 µM
[20] = second compound 0.316 µM, first compound 1 µM
[21] = second compound 1 µM, first compound 0.0316 µM
[22] = second compound 1 µM, first compound 0.1 µM
[23] = second compound 1 µM, first compound 0.316 µM
[24] = second compound 1 µM, first compound 1 µM
[25] = second compound 0.00316 µM, first compound 0.00316 µM
[26] = second compound 0.00316 µM, first compound 0.01 µM
[27] = second compound 0.01 µM, first compound 0.00316 µM
[28] = second compound 0.01 µM, first compound 0.01 µM
[29] = second compound 0.0316 µM, first compound 0.00316 µM
[30] = second compound 0.0316 µM, first compound 0.01 µM
[31] = second compound 0.1 µM, first compound 0.00316 µM
[32] = second compound 0.1 µM, first compound 0.01 µM
[33] = second compound 0.316 µM, first compound 0.00316 µM
[34] = second compound 0.316 µM, first compound 0.01 µM
[35] = second compound 1 µM, first compound 0.00316 µM
[36] = second compound 1 µM, first compound 0.01 µM

C=CC(=O)N1CCN(c2nc(=O)n(-c3c(C)ccnc3C(C)C)c3nc(-c4c(O)cccc4F)c(F)cc23)C(C)C1 (stereo unspecified) + CNC(C)C(=O)NC1CN(S(=O)(=O)c2cccc(S(=O)(=O)N3CCC4CCC(C(=O)NC(c5ccccc5)c5ccccc5)N4C(=O)C(NC(=O)C(C)NC)C3)c2)CCC2CCC(C(=O)NC(c3ccccc3)c3ccccc3)N2C1=O
inactive: viability, T/C [1] 81.6% | viability, T/C [2] 98.1% | viability, T/C [3] 94.1% | viability, T/C [4] 102% | viability, T/C (second compound 0.00316 µM, first compound 3.16 µM) 110% | viability, T/C (second compound 0.00316 µM, first compound 10 µM) 128% | viability, T/C [5] 81.2% | viability, T/C [6] 101% | viability, T/C [7] 84% | viability, T/C [8] 112% | viability, T/C (second compound 0.01 µM, first compound 3.16 µM) 114% | viability, T/C (second compound 0.01 µM, first compound 10 µM) 145% | viability, T/C [9] 96.1% | viability, T/C [10] 69.1% | viability, T/C [11] 127% | viability, T/C [12] 109% | viability, T/C (second compound 0.0316 µM, first compound 3.16 µM) 125% | viability, T/C (second compound 0.0316 µM, first compound 10 µM) 185% | viability, T/C [13] 101% | viability, T/C [14] 92.7% | viability, T/C [15] 117% | viability, T/C [16] 107% | viability, T/C (second compound 0.1 µM, first compound 3.16 µM) 127% | viability, T/C (second compound 0.1 µM, first compound 10 µM) 161% | viability, T/C [17] 73% | viability, T/C [18] 79.5% | viability, T/C [19] 113% | viability, T/C [20] 106% | viability, T/C (second compound 0.316 µM, first compound 3.16 µM) 115% | viability, T/C (second compound 0.316 µM, first compound 10 µM) 148% | viability, T/C [21] 98.4% | viability, T/C [22] 99.9% | viability, T/C [23] 102% | viability, T/C [24] 79% | viability, T/C (second compound 1 µM, first compound 3.16 µM) 143% | viability, T/C (second compound 1 µM, first compound 10 µM) 154%
> 10000 nM: IC50 (second compound 0.00316 µM) | IC50 (second compound 0.01 µM) | IC50 (second compound 0.0316 µM) | IC50 (second compound 0.1 µM) | IC50 (second compound 0.316 µM) | IC50 (second compound 1 µM)

COc1c(OCCCN2CCOCC2)ccc2c3n(c(=NC(=O)c4cnc(N)nc4)nc12)CCN3 + CNC(C)C(=O)NC1CN(S(=O)(=O)c2cccc(S(=O)(=O)N3CCC4CCC(C(=O)NC(c5ccccc5)c5ccccc5)N4C(=O)C(NC(=O)C(C)NC)C3)c2)CCC2CCC(C(=O)NC(c3ccccc3)c3ccccc3)N2C1=O
inactive: viability, T/C [25] 89.4% | viability, T/C [26] 66.3% | viability, T/C [1] 28.6% | viability, T/C [2] 24.9% | viability, T/C [3] 9.54% | viability, T/C [27] 81.5% | viability, T/C [28] 71.1% | viability, T/C [5] 49.9% | viability, T/C [6] 18.6% | viability, T/C [29] 104% | viability, T/C [30] 61.6% | viability, T/C [9] 57.1% | viability, T/C [10] 19.4% | viability, T/C [11] 9.82% | viability, T/C [31] 90.1% | viability, T/C [32] 59.8% | viability, T/C [13] 32.2% | viability, T/C [14] 25.8% | viability, T/C [15] 13.8% | viability, T/C [33] 78.7% | viability, T/C [34] 52.2% | viability, T/C [17] 39.3% | viability, T/C [18] 19.8% | viability, T/C [19] 11.1% | viability, T/C [35] 65.7% | viability, T/C [36] 51% | viability, T/C [21] 32% | viability, T/C [22] 21.2% | viability, T/C [23] 10.2%
10 nM: IC50 (second compound 1 µM)
13.2 nM: IC50 (second compound 0.316 µM)
24.6 nM: IC50 (second compound 0.0316 µM)
17.1 nM: IC50 (second compound 0.00316 µM)
29.4 nM: IC50 (second compound 0.01 µM)
15.6 nM: IC50 (second compound 0.1 µM)
active: viability, T/C [4] 5.55% | viability, T/C [7] 10.2% | viability, T/C [8] 5.07% | viability, T/C [12] 4.9% | viability, T/C [16] 5.12% | viability, T/C [20] 5.92% | viability, T/C [24] 5.66%

NC1CCC(NC2CC2c2ccccc2)CC1 (stereo unspecified) + CNC(C)C(=O)NC1CN(S(=O)(=O)c2cccc(S(=O)(=O)N3CCC4CCC(C(=O)NC(c5ccccc5)c5ccccc5)N4C(=O)C(NC(=O)C(C)NC)C3)c2)CCC2CCC(C(=O)NC(c3ccccc3)c3ccccc3)N2C1=O
inactive: viability, T/C (second compound 0.00316 µM, first compound 0.000316 µM) 65.4% | viability, T/C (second compound 0.00316 µM, first compound 0.001 µM) 91.4% | viability, T/C [25] 51.1% | viability, T/C [26] 99.5% | viability, T/C [1] 55% | viability, T/C [2] 52.7% | viability, T/C (second compound 0.01 µM, first compound 0.000316 µM) 72.2% | viability, T/C (second compound 0.01 µM, first compound 0.001 µM) 74.9% | viability, T/C [27] 79.5% | viability, T/C [28] 84.7% | viability, T/C [5] 62.6% | viability, T/C [6] 47.7% | viability, T/C (second compound 0.0316 µM, first compound 0.000316 µM) 88.5% | viability, T/C (second compound 0.0316 µM, first compound 0.001 µM) 63.8% | viability, T/C [29] 70.4% | viability, T/C [30] 81.8% | viability, T/C [9] 61.8% | viability, T/C [10] 61.6% | viability, T/C (second compound 0.1 µM, first compound 0.000316 µM) 94.8% | viability, T/C (second compound 0.1 µM, first compound 0.001 µM) 79.1% | viability, T/C [31] 87.3% | viability, T/C [32] 61.1% | viability, T/C [13] 69.5% | viability, T/C [14] 54.3% | viability, T/C (second compound 0.316 µM, first compound 0.000316 µM) 83.3% | viability, T/C (second compound 0.316 µM, first compound 0.001 µM) 77.2% | viability, T/C [33] 69.3% | viability, T/C [34] 99.6% | viability, T/C [17] 79.6% | viability, T/C [18] 48.7% | viability, T/C (second compound 1 µM, first compound 0.000316 µM) 92.9% | viability, T/C (second compound 1 µM, first compound 0.001 µM) 59.2% | viability, T/C [35] 69.1% | viability, T/C [36] 63.3% | viability, T/C [21] 85.2% | viability, T/C [22] 55.7%
> 100 nM: IC50 (second compound 0.00316 µM) | IC50 (second compound 0.0316 µM) | IC50 (second compound 0.1 µM) | IC50 (second compound 1 µM)
95.3 nM: IC50 (second compound 0.316 µM)
83.9 nM: IC50 (second compound 0.01 µM)
